Assay results published in publication PMC4450297, “Screening Active Compounds from Garcinia Species Native to China Reveals Novel Compounds Targeting the STAT/JAK Signaling Pathway” (BioMed Research International, 2015).

Legend:
Assay in all cases: Cell panel screen (CellTiter-Glo)
Assay type in all cases: cell-based, human
[1] = system: A498; settings: A498 (listed under Lung), 20 micromolar, 72 hrs
How it was run: (§1)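 Values are % growth inhibition: the signal of treated wells was set against untreated (DMSO) wells, with cell-free wells as background. Treatment lasted 72 h at 20 μM final compound, and ATP content was read by luminescence.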

[2] = system: A704; settings: A704 (Kidney), 20 micromolar, 72 hrs
How it was run: as §1

[3] = system: BT-474; settings: BT-474 (Breast), 20 micromolar, 72 hrs
How it was run: as §1

[4] = system: BT-549; settings: BT-549 (Breast), 20 micromolar, 72 hrs
How it was run: as §1

[5] = system: Bel-7402; settings: Bel-7402 (Liver), 20 micromolar, 72 hrs
How it was run: as §1

[6] = system: C3A; settings: C3A (Liver), 20 micromolar, 72 hrs
How it was run: as §1

[7] = system: C8166; settings: C8166 (Leukemia), 20 micromolar, 72 hrs
How it was run: as §1

[8] = system: CCF-STTG1; settings: CCF-STTG1 (Brain), 20 micromolar, 72 hrs
How it was run: as §1

[9] = system: CW-2; settings: CW-2 (Colon), 20 micromolar, 72 hrs
How it was run: as §1

[10] = system: ChaGo-K-1; settings: ChaGo-K-1 (Lung), 20 micromolar, 72 hrs
How it was run: as §1

[11] = system: Colo 205; settings: Colo 205, 20 micromolar, 72 hrs
How it was run: as §1

[12] = system: HCC1395; settings: HCC1395 (Breast), 20 micromolar, 72 hrs
How it was run: as §1

[13] = system: HCC1569; settings: HCC1569 (Breast), 20 micromolar, 72 hrs
How it was run: as §1

[14] = system: HCC1599; settings: HCC1599 (Breast), 20 micromolar, 72 hrs
How it was run: as §1

[15] = system: HCC1937; settings: HCC1937 (Breast), 20 micromolar, 72 hrs
How it was run: as §1

[16] = system: HEC-1-A; settings: HEC-1-A (Uterus), 20 micromolar, 72 hrs
How it was run: as §1

[17] = system: HGC-27; settings: HGC-27 (Stomach), 20 micromolar, 72 hrs
How it was run: as §1

[18] = system: HPAF-II; settings: HPAF-II (Pancreas), 20 micromolar, 72 hrs
How it was run: as §1

[19] = system: HT-1197; settings: HT-1197 (Urinary bladder), 20 micromolar, 72 hrs
How it was run: as §1

[20] = system: J82; settings: J82 (Urinary bladder), 20 micromolar, 72 hrs
How it was run: as §1

[21] = system: M059J; settings: M059J (Brain), 20 micromolar, 72 hrs
How it was run: as §1

[22] = system: MSTO-211-H; settings: MSTO-211-H (Lung), 20 micromolar, 72 hrs
How it was run: as §1

[23] = system: NCI-H1623; settings: NCI-H1623 (Lung), 20 micromolar, 72 hrs
How it was run: as §1

[24] = system: NCI-H1694; settings: NCI-H1694 (Lung), 20 micromolar, 72 hrs
How it was run: as §1

[25] = system: NCI-H1770; settings: NCI-H1770 (Lung), 20 micromolar, 72 hrs
How it was run: as §1

[26] = system: NCI-H2347; settings: NCI-H2347 (Lung), 20 micromolar, 72 hrs
How it was run: as §1

[27] = system: NCI-H2405; settings: NCI-H2405 (Lung), 20 micromolar, 72 hrs
How it was run: as §1

[28] = system: NCI-H28; settings: NCI-H28 (Lung), 20 micromolar, 72 hrs
How it was run: as §1

[29] = system: NCI-H524; settings: NCI-H524 (Lung), 20 micromolar, 72 hrs
How it was run: as §1

[30] = system: Panc 03.27; settings: Panc 03.27 (Pancreas), 20 micromolar, 72 hrs
How it was run: as §1

[31] = system: RL95; settings: RL95 (Uterus), 20 micromolar, 72 hrs
How it was run: as §1

[32] = system: SW13; settings: SW13 (Adrenal gland), 20 micromolar, 72 hrs
How it was run: as §1

[33] = system: T47D; settings: T47D (Breast), 20 micromolar, 72 hrs
How it was run: as §1

[34] = system: T98G; settings: T98G (Brain), 20 micromolar, 72 hrs
How it was run: as §1

[35] = system: TCCSUP; settings: TCCSUP (Urinary bladder), 20 micromolar, 72 hrs
How it was run: as §1

[36] = system: ZR-75-30; settings: ZR-75-30 (Breast), 20 micromolar, 72 hrs
How it was run: as §1

| Compound | Percent Inhibition [1] | Percent Inhibition [2] | Percent Inhibition [3] | Percent Inhibition [4] | Percent Inhibition [5] | Percent Inhibition [6] | Percent Inhibition [7] | Percent Inhibition [8] | Percent Inhibition [9] | Percent Inhibition [10] | Percent Inhibition [11] | Percent Inhibition [12] | Percent Inhibition [13] | Percent Inhibition [14] | Percent Inhibition [15] | Percent Inhibition [16] | Percent Inhibition [17] | Percent Inhibition [18] | Percent Inhibition [19] | Percent Inhibition [20] | further results |
| --- | --- | --- | --- | --- | --- | --- | --- | --- | --- | --- | --- | --- | --- | --- | --- | --- | --- | --- | --- | --- | --- |
| CCOC(=O)C1OC(Oc2cc(O)c3c(c2)OC(c2ccc(O)c(O)c2)CC3=O)C(O)C(O)C1O (stereo not drawn) [gly-3] | -4% | -17% | -24% | -14% | -5% | -4% | -1% | -4% | 4% | -13% | -6% | 9% | -8% | -18% | 3% | -19% | -11% | -7% | 11% | -7% | Percent Inhibition [21]: 1%; Percent Inhibition [22]: -3%; Percent Inhibition [23]: 8%; Percent Inhibition [24]: 1%; Percent Inhibition [25]: -10%; Percent Inhibition [26]: 4%; Percent Inhibition [27]: -3%; Percent Inhibition [28]: -18%; Percent Inhibition [29]: -25%; Percent Inhibition [30]: 2%; Percent Inhibition [31]: 6%; Percent Inhibition [32]: -5%; Percent Inhibition [33]: -4%; Percent Inhibition [34]: -3%; Percent Inhibition [35]: -1%; Percent Inhibition [36]: 13% |
| COC(=O)C1OC(Oc2cc(O)c3c(=O)cc(-c4ccc(O)cc4)oc3c2)C(O)C(O)C1O (stereo not drawn) [WZ-6] | 13% | -9% | -12% | -16% | 1% | -1% | -15% | -3% | 12% | -16% | 4% | 21% | -18% | 12% | 3% | 1% | -8% | -14% | 16% | -5% | Percent Inhibition [21]: 2%; Percent Inhibition [22]: 6%; Percent Inhibition [23]: -8%; Percent Inhibition [24]: -9%; Percent Inhibition [25]: -1%; Percent Inhibition [26]: -3%; Percent Inhibition [27]: -12%; Percent Inhibition [28]: 6%; Percent Inhibition [29]: -11%; Percent Inhibition [30]: -4%; Percent Inhibition [31]: -5%; Percent Inhibition [32]: 1%; Percent Inhibition [33]: 4%; Percent Inhibition [34]: 4%; Percent Inhibition [35]: 8%; Percent Inhibition [36]: -2% |
| CC(C)=CCC/C(C)=C/Cc1c(O)c(CC=C(C)C)c2c(c1O)C(=O)C1=C[C@@H]3C[C@H]4C(C)(C)O[C@@](C/C=C(/C)C(=O)O)(C3=O)[C@@]14O2 [GB16] | 100% | 99% | 99% | 99% | 99% | 99% | 100% | 99% | 99% | 99% | 99% | 99% | 99% | 100% | 100% | 99% | 100% | 98% | 99% | 99% | Percent Inhibition [21]: 99%; Percent Inhibition [22]: 100%; Percent Inhibition [23]: 99%; Percent Inhibition [24]: 100%; Percent Inhibition [25]: 100%; Percent Inhibition [26]: 98%; Percent Inhibition [27]: 99%; Percent Inhibition [28]: 99%; Percent Inhibition [29]: 98%; Percent Inhibition [30]: 99%; Percent Inhibition [31]: 99%; Percent Inhibition [32]: 99%; Percent Inhibition [33]: 99%; Percent Inhibition [34]: 99%; Percent Inhibition [35]: 100%; Percent Inhibition [36]: 100% |
